For two compounds, Residual activity results are on record in PMC9030254, “Target Hopping from Protein Kinases to PXR: Identification of Small-Molecule Protein Kinase Inhibitors as Selective Modulators of Pregnane X Receptor from TüKIC Library” (Cells, 2022).

Common to all, as to experiment: Kinase profiling
What all share (format): biochemical

One assay deals with T1, MAP3K7/MAP3K7IP1 (Homo sapiens, UniProt O43318).
T1 construct: purchased ProQinase (Freiburg, Germany)
T1 sequence (O43318 1-303 limits assumed): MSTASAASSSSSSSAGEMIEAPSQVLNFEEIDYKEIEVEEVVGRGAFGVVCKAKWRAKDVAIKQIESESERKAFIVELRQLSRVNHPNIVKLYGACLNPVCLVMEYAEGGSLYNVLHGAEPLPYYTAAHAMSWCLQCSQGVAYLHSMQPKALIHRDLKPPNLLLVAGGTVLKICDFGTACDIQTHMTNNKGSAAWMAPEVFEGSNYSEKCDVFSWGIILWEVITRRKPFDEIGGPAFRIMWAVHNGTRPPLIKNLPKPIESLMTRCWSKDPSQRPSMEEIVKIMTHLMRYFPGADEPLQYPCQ
On the procedure:
(§1) The analysis was performed by ProQinase (Freiburg, Germany).

Another assay deals with T2, MYLK (Homo sapiens, UniProt Q15746).
T2 construct: purchased ProQinase (Freiburg, Germany)
The procedure: as §1

A further assay concerns the target T3, GSK3alpha (Homo sapiens, UniProt P49840).
T3 construct: purchased ProQinase (Freiburg, Germany)
The procedure: as §1

For the next assay, the target named is T4, NEK9 (Homo sapiens, UniProt Q8TD19).
T4 construct: purchased ProQinase (Freiburg, Germany)
T4 sequence (Q8TD19 1-979): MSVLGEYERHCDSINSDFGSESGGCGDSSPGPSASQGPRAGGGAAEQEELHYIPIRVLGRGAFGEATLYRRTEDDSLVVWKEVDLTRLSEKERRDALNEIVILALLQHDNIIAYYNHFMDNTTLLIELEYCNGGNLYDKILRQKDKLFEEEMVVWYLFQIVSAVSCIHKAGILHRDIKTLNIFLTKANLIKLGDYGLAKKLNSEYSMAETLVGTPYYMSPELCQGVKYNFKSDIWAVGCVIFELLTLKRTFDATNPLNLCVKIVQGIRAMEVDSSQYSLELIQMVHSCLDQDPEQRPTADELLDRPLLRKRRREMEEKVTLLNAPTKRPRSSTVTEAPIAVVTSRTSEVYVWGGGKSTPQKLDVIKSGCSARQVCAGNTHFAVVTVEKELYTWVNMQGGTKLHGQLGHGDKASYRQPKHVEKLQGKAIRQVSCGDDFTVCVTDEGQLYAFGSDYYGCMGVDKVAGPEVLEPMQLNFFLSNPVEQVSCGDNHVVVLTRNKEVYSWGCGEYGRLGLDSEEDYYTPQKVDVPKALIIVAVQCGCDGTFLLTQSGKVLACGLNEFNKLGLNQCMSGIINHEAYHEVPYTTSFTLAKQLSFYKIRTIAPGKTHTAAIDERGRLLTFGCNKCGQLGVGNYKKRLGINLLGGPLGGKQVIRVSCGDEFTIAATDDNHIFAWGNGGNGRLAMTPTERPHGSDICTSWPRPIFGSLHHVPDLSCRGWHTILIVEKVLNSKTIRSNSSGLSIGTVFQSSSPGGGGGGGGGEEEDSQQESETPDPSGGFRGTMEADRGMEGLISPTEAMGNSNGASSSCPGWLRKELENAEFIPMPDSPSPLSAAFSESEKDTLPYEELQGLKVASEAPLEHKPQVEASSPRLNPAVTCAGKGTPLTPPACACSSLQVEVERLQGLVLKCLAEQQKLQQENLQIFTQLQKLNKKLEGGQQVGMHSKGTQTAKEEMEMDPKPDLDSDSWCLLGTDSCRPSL
The procedure:
as §1

In the next assay the target is T5, GRK6 (Homo sapiens, UniProt P43250).
T5 construct: purchased ProQinase (Freiburg, Germany)
T5 sequence (P43250 whole entry): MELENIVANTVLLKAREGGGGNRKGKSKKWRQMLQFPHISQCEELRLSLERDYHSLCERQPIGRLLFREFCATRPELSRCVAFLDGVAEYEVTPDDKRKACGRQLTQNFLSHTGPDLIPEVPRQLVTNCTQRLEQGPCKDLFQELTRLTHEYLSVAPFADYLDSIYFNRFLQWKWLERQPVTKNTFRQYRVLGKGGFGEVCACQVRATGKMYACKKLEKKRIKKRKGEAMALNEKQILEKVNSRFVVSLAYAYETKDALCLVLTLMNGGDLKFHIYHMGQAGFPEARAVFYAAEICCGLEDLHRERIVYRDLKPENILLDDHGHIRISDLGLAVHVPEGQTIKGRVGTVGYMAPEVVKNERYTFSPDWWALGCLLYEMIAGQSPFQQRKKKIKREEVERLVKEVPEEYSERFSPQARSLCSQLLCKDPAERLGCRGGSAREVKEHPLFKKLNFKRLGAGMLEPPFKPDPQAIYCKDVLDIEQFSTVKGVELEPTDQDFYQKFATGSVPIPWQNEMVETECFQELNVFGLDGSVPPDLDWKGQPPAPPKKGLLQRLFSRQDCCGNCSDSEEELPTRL
On the procedure: as §1

The next assay has as its target T6, MAPKAPK5 (Homo sapiens, UniProt Q8IW41).
T6 construct: purchased ProQinase (Freiburg, Germany)
T6 sequence (Q8IW41 1-473): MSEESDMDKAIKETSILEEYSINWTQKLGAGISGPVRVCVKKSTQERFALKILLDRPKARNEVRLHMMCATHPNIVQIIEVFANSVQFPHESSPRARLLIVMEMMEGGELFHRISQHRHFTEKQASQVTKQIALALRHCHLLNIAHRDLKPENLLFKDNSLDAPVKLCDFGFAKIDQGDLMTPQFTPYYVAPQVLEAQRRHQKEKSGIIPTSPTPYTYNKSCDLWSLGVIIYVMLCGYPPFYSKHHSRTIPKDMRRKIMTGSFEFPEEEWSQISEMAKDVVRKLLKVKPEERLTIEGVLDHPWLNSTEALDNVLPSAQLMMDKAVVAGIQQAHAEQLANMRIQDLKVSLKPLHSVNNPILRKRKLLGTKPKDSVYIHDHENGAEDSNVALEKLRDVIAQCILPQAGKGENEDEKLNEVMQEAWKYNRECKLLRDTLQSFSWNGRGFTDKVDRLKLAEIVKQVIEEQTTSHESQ
On the procedure: as §1

For another assay, the target named is T7, BMPR1B (Homo sapiens, UniProt O00238).
T7 construct: purchased ProQinase (Freiburg, Germany)
The procedure:
as §1

For another assay, the target named is T8, VEGFR2 (Homo sapiens, UniProt P35968).
T8 construct: purchased ProQinase (Freiburg, Germany)
The procedure: as §1

For a further assay, the target named is T9, FAK (Homo sapiens, UniProt Q05397).
T9 construct: purchased ProQinase (Freiburg, Germany)
T9 sequence (Q05397 whole entry): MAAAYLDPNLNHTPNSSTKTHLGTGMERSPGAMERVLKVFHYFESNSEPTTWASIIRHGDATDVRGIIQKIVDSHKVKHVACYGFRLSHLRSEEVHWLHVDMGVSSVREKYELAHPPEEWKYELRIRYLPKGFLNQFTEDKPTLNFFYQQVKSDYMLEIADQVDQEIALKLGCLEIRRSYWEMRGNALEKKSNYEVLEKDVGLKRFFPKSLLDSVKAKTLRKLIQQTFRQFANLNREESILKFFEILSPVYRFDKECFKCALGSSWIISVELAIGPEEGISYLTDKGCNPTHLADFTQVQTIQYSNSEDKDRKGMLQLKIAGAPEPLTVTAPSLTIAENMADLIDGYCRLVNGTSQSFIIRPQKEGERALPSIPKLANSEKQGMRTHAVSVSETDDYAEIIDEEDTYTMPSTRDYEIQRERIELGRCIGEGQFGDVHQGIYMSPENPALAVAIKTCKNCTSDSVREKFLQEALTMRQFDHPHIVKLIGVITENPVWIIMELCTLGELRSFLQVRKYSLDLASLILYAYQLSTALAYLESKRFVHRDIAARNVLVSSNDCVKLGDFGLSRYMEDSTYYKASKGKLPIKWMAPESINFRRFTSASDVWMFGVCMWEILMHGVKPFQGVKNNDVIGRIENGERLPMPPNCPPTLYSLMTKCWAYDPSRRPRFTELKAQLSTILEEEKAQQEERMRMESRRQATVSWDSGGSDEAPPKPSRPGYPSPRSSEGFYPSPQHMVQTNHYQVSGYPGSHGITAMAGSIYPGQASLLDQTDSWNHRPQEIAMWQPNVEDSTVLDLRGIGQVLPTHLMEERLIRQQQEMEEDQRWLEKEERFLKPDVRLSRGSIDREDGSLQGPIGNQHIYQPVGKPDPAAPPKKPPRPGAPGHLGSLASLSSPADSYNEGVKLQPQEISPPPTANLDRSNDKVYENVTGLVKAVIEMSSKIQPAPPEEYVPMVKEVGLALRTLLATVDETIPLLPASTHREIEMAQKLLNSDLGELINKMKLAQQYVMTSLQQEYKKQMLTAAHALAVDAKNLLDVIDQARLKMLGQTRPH
On the procedure:
as §1

The target of a further assay is T10, SRMS (Homo sapiens, UniProt Q9H3Y6).
T10 construct: purchased ProQinase (Freiburg, Germany)
T10 sequence (Q9H3Y6 whole entry): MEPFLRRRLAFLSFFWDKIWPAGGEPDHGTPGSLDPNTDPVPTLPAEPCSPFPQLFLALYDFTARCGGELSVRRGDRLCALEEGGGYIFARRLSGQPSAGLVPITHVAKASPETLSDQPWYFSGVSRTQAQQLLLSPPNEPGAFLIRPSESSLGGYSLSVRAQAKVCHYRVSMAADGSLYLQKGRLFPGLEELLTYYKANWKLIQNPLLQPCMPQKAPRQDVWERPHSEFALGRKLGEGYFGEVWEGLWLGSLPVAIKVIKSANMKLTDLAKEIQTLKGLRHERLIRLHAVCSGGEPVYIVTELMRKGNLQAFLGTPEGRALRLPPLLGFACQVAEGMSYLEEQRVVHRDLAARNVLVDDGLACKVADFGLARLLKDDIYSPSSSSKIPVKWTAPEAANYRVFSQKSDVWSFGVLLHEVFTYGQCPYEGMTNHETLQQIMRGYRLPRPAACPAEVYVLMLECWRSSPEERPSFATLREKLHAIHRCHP
On the procedure:
as §1

For a further assay, the target named is T11, HIPK2 (Homo sapiens, UniProt Q9H2X6).
T11 construct: purchased ProQinase (Freiburg, Germany)
T11 sequence (Q9H2X6 whole entry): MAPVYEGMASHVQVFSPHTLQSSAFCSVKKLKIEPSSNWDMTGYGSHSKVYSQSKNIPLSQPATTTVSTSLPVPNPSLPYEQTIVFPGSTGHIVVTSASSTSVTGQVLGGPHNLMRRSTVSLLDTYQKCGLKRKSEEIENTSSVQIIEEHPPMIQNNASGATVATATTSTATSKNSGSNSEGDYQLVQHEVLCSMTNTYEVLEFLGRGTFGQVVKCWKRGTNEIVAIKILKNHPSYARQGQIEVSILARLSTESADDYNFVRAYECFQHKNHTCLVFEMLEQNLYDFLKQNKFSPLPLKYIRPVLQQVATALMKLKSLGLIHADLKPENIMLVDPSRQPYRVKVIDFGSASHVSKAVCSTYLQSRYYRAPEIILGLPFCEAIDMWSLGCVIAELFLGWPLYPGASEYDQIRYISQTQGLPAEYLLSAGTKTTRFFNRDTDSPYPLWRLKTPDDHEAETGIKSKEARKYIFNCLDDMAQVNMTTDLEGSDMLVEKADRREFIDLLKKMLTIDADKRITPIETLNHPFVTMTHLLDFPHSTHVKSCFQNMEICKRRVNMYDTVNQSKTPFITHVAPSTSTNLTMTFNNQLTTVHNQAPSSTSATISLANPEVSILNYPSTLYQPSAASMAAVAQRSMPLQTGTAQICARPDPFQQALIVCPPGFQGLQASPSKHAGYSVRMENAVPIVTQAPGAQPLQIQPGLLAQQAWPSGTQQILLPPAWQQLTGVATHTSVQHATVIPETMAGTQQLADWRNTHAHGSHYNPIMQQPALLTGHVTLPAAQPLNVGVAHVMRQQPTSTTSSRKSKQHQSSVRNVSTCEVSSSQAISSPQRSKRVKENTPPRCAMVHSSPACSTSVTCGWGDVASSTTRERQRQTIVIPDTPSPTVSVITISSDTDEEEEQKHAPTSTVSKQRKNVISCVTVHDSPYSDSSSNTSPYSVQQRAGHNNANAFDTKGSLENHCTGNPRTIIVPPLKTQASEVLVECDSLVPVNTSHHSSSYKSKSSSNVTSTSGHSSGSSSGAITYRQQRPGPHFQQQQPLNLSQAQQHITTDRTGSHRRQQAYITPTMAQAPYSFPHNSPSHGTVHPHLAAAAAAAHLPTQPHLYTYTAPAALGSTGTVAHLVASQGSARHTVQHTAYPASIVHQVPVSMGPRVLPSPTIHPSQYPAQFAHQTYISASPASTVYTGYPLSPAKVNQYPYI
On the procedure: as §1

The target of a further assay is T12, TRKC (Homo sapiens, UniProt Q16288).
T12 construct: purchased ProQinase (Freiburg, Germany)
T12 sequence (Q16288 32-839): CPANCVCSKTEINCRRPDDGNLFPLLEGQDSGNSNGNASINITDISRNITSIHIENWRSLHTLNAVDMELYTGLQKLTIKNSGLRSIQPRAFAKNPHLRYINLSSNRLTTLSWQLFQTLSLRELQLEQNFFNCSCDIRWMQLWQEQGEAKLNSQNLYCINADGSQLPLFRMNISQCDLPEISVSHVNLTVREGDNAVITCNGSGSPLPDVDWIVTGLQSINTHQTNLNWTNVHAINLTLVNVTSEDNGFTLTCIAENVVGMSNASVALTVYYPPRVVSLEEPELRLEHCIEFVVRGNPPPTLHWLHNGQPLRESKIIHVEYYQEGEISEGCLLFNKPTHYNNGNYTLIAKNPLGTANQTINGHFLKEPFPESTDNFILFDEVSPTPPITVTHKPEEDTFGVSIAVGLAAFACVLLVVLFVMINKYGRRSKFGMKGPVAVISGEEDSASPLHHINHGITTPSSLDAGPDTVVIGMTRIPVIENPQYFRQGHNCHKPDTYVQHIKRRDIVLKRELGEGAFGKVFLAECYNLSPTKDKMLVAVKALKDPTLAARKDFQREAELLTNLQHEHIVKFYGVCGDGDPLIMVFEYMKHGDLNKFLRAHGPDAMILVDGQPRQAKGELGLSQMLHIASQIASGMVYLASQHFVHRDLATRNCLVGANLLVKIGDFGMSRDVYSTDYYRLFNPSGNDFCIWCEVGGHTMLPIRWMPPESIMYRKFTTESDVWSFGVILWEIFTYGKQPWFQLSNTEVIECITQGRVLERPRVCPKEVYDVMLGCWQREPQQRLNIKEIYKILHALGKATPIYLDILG
The procedure:
as §1

T3 sequence (P49840 whole entry): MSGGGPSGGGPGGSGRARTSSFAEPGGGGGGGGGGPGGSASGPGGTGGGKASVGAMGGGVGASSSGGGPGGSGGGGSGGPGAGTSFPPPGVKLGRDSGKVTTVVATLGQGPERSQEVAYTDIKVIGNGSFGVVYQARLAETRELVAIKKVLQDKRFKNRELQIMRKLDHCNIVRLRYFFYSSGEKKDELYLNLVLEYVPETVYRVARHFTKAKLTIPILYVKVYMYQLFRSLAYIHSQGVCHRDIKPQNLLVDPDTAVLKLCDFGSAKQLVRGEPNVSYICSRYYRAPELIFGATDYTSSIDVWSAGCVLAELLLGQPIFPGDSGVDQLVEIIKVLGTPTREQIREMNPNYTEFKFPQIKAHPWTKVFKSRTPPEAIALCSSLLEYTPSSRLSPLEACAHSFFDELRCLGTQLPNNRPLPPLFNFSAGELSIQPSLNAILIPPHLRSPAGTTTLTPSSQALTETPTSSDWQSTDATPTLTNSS

For the compound `O=C(Cc1ccccc1)Nc1ccc(F)c(Nc2ccc3c(c2)CCCCC3=O)c1` [Compound 100], the Residual activity at MAP3K7/MAP3K7IP1 (1.0E-05 M) is 91 % of control; on MAP3K7/MAP3K7IP1 (1.0E-06 M) it was 88 % of control; on MYLK (1.0E-05 M) it was 78 % of control; on MYLK (1.0E-06 M), 92 % of control; at GSK3alpha (1.0E-05 M), 90 % of control; on GSK3alpha (1.0E-06 M), 109 % of control. For the same compound, the Residual activity at NEK9 (1.0E-05 M) was 93 % of control; on NEK9 (1.0E-06 M) it was 86 % of control; at GRK6 (1.0E-05 M), 114 % of control; on GRK6 (1.0E-06 M), 117 % of control; on MAPKAPK5 (1.0E-05 M) it was 89 % of control; on MAPKAPK5 (1.0E-06 M), 127 % of control. Moreover, the Residual activity on BMPR1B (1.0E-05 M) was 121 % of control; at BMPR1B (1.0E-06 M) it was 102 % of control; on VEGFR2 (1.0E-05 M), 77 % of control; on VEGFR2 (1.0E-06 M), 98 % of control; at FAK (1.0E-05 M), 88 % of control; at FAK (1.0E-06 M) it was 116 % of control. Also, the Residual activity at SRMS (1.0E-05 M) is on record as 93 % of control; at SRMS (1.0E-06 M) it was 102 % of control; on HIPK2 (1.0E-05 M) it was 101 % of control; at HIPK2 (1.0E-06 M) it was 97 % of control; on TRKC (1.0E-05 M), 89 % of control; at TRKC (1.0E-06 M), 109 % of control.

In the case of `O=C(Nc1ccc(F)c(Nc2ccc3c(c2)CCCCC3=O)c1)c1cccc(F)c1` [Compound 109], the Residual activity is recorded as 91 % of control at MAP3K7/MAP3K7IP1 (1.0E-05 M); 91 % of control at MAP3K7/MAP3K7IP1 (1.0E-06 M); 64 % of control at MYLK (1.0E-05 M); 81 % of control at MYLK (1.0E-06 M); 106 % of control at GSK3alpha (1.0E-05 M); 112 % of control on GSK3alpha (1.0E-06 M). Further, the Residual activity at NEK9 (1.0E-05 M) is recorded as 81 % of control; at NEK9 (1.0E-06 M), 96 % of control; on GRK6 (1.0E-05 M), 121 % of control; at GRK6 (1.0E-06 M), 113 % of control; on MAPKAPK5 (1.0E-05 M), 97 % of control; on MAPKAPK5 (1.0E-06 M), 101 % of control. The Residual activity was 128 % of control at BMPR1B (1.0E-05 M); 101 % of control at BMPR1B (1.0E-06 M); 79 % of control on VEGFR2 (1.0E-05 M); 84 % of control at VEGFR2 (1.0E-06 M); 88 % of control at FAK (1.0E-05 M); 104 % of control on FAK (1.0E-06 M). Moreover, the Residual activity at SRMS (1.0E-05 M) is given as 97 % of control; at SRMS (1.0E-06 M), 98 % of control; on HIPK2 (1.0E-05 M), 95 % of control; on HIPK2 (1.0E-06 M), 90 % of control; on TRKC (1.0E-05 M), 97 % of control; at TRKC (1.0E-06 M) it was 112 % of control.
